The values below are quoted from earlier work in patent publication US10533225B2, “Methods and systems for monitoring, diagnosing, and treating chronic obstructive pulmonary disease” (Trustees of Boston University, priority 2012, dated 2020).

Data set [1] deals with ER stress markers and airspace. As to conditions: mice, administration.
A further data set concerns PI3K pathway activation. As to conditions: smokers with airway epithelial cell dysplasia.

With `C=CC=O` [acrolein], in data set [1], the ER stress markers entry is given as “increase in ER stress markers” and the airspace change result is “airspace enlargement”.

As for `O[C@H]1[C@H](O)[C@@H](O)[C@H](O)[C@@H](O)[C@H]1O` [myo-inositol], in the data set with PI3K pathway activation, the “airway PI3K pathway activation” value is recorded as “reversible”.
